{
  "source": "patent US10624875B2",
  "about": "“Methods and compositions for treating schizophrenia” (The Johns Hopkins University, priority 2012, dated 2020)",
  "test_system": "aMCI subjects",
  "test": "explicit 3-alternative forced choice task (lure images), cognitive performance",
  "format": "in vivo, human",
  "conditions": "125 mg twice a day for two weeks, versus placebo",
  "excerpt": "There are various tests known in the art for assessing cognitive function in humans, for example and without limitation, the clinical global impression of change scale (CIBIC-plus scale); the Mini Mental State Exam (MMSE); the Neuropsychiatric Inventory (NPI); the Clinical Dementia Rating Scale (CDR); the Cambridge Neuropsychological Test Automated Battery (CANTAB); the Sandoz Clinical Assessment-Geriatric (SCAG), the Buschke Selective Reminding Test (Buschke and Fuld, 1974); the Verbal Paired Associates subtest; the Logical Memory subtest; the Visual Reproduction subtest of the Wechsler Memory Scale-Revised (WMS-R) (Wechsler, 1997); the Benton Visual Retention Test, or MATRICS consensus neuropsychological test battery which includes tests of working memory, speed of processing, attention, verbal learning, visual learning, reasoning and problem solving and social cognition. […]\nAs described above, the drug treatment period is the two weeks preceding Visit 1 or 2 (with the two week period preceding the other Visit being the placebo phase). For the subjects receiving the drug treatment, half a scored 250 mg tablet of levetiracetam is used to achieve a dose of […], which is approximately 3.6 mg/kg/day (assuming an average adult human weight of 70 kg). […]",
  "data": [
    {"smiles": "CC[C@@H](C(N)=O)N1CCCC1=O", "note": "[levetiracetam, (2S)-2-(2-oxopyrrolidin-1-yl) butanamide]", "values": [
      {"measurement": "performance in the explicit 3-alternative forced choice task", "value": "improves significantly"}
    ]}
  ]
}
